Measured values as given in patent US7247709B2, “Mitogenic oxygenases” (Emory University, priority 1998, dated 2007).
Blank lines part the entries; values can stand above or below the molecule they belong to.

Legend:
human mox1 = biological target: T1, human mox1 (Homo sapiens, UniProt Q9Y5S8, I173V); test: NADPH-dependent superoxide generation, lucigenin luminescence assay in lysates of mox1-transfected NIH 3T3 cells; format: biochemical; conditions: lysates of stably mox1-transfected NIH 3T3 cell lines
T1 construct: expressed in transfected cells
T1 sequence (Q9Y5S8 1-564 I173V): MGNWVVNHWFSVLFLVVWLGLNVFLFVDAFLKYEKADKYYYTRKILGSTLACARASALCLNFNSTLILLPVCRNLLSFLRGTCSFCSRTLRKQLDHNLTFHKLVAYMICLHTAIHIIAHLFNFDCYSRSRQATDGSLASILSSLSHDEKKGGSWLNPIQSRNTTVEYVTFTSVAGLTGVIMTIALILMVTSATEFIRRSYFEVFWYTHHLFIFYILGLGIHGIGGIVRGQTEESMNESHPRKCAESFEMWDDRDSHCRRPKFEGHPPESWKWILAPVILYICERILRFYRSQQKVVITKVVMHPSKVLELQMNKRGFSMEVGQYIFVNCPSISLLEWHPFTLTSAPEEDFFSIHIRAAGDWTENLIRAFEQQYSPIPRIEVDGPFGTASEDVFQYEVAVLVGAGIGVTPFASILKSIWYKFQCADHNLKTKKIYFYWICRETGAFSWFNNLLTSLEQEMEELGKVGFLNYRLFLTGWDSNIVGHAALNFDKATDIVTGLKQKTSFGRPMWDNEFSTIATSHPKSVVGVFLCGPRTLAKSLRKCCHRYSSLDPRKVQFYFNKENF
T1 sequence (Q61462 1-192 partner): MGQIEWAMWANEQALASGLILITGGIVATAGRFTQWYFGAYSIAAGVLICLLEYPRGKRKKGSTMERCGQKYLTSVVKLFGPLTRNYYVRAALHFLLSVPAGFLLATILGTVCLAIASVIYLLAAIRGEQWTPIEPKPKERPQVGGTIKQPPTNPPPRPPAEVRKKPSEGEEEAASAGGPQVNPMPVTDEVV
Method: In one embodiment of the present invention, NIH 3T3 cells stably transfected with the human mox1 gene (SEQ ID NO:1) were analyzed for superoxide generation using the lucigenin (Bis-N-methylacridinium luminescence assay (Sigma, St. Louis, Mo., Li et al. (1998) J. Biol. Chem. 273, 2015-2023). Cells were washed with cold HANKS' solution and homogenized on ice in HANKS' buffer containing 15% sucrose using a Dounce homogenizer. Cell lysates were frozen immediately in a dry ice/ethanol bath. For the assay, 30 μg of cell lysate was mixed with 200 μM NADPH and 500 μM lucigenin. Luminescence was monitored using a LumiCounter (Packard) at three successive one minute intervals and the highest value was used for comparison. Protein concentration was determined by the Bradford method.
Superoxide generation was monitored in lysates from some of the stably transfected cell lines and was compared with superoxide generation by the untransfected NIH 3T3 cell lysates. Cell lines 26, 27, and 28 gave the highest degree of morphological changes by microscopic examination corresponding to the highest degree of superoxide generation. The luminescent signal was inhibited by superoxide dismutase and the general flavoprotein inhibitor diphenylene iodonium, but was unaffected by added recombinant human p47phox, p67phox and Rac1 (GTP-γS), which are essential cytosolic factors for the phagocyte respiratory-burst oxidase.

[1] = tested on: superoxide-generating NADPH oxidase activity; test: Superoxide generation in lysates of Ras-transformed fibroblasts, lucigenin luminescence assay; format: biochemical; conditions: for RLU/5 μg protein, plus DPI: 1 μM DPI; for inhibition of luminescence / activity: lysates of Table 6; for RLU/5 μg protein, plus SOD: 100 U SOD
Method: Lysates from each of these lines were then prepared and tested for their ability to generate superoxide. For each cell line, cells were washed with cold HANKS' balanced salt solution (HBSS), collected by centrifugation, kept on dry-ice for more than 30 min, and disrupted by suspending in low salt buffer (LSB; 50 mM Tris/HCl, pH 7.5, 1 mM PMSF, and protease cocktail from Sigma) and passing through a syringe needle (18 gauge) ten times. Cell lysates were frozen in dry-ice immediately after determining the protein concentration. […] Luminescence of the reaction mixture was monitored for 0.5 second by LumiCounter (Packard) for four times at 3 second intervals. RLU in Table 5 refers to relative luminescence units.

mox1 NADPH-oxidase = biological target: T2, mox1 NADPH-oxidase (Homo sapiens, UniProt Q9Y5S8, I173V); test: Cell-free assay for mox1 NADPH-oxidase activity (NADPH-dependent chemiluminescence of cell lysates); format: biochemical; conditions: MgCl2 1-5 mM
T2 construct: expressed in transfected cells
T2 sequence (Q9Y5S8 1-564 I173V): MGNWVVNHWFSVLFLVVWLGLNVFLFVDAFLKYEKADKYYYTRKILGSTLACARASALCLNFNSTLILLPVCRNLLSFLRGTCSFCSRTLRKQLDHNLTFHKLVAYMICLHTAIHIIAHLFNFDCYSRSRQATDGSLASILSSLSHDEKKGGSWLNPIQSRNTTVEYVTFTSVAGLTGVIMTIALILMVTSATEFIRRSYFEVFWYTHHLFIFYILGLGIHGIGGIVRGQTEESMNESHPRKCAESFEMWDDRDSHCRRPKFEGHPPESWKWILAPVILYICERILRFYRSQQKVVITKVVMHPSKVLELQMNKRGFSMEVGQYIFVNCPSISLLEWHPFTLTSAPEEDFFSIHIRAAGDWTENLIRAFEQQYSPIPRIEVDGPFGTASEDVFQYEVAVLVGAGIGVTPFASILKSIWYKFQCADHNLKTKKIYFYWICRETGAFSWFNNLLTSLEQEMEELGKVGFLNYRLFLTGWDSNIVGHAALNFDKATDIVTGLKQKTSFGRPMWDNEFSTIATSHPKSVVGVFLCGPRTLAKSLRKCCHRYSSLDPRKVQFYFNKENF
T2 sequence (Q61462 1-192 partner): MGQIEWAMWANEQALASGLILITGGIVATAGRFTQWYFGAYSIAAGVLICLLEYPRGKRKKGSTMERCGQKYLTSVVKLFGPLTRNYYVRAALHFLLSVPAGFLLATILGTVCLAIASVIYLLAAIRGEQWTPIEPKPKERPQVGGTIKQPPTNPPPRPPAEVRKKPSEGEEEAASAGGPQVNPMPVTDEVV
Method: In an alternate and preferred embodiment of the present invention, cells that had been stably transfected with mox1 (YA28) or with empty vector (NEF2) were grown in 10 cm tissue culture plates in medium containing DMEM, 10% calf serum, 100 units/ml penicillin, 100 μg/ml streptomycin, and 1 μg/ml puromycin to approximately 80% confluency. Cells (five tissue culture plates of each cell type) were washed briefly with 5 ml phosphate buffered saline (PBS) then dissociated from the plates with PBS containing 5 mM EDTA. Cells were pelleted by centrifuging briefly at 1000×g.
To permeabilize the cells, freeze thaw lysis was carried out and this was followed by passage of the cell material through a small bore needle. The supernatant was removed and the cells were frozen on dry ice for 15 minutes. […]
The cell lysates were assayed for protein concentration using the BioRad protein assay system. […] The reaction was initiated by adding 1.5 mM NADPH and 75 μM lucigenin to the assay mix to give a final concentration of 200 μM NADPH and 10 μM lucigenin, and the chemiluminescence was monitored immediately. […] The plate was monitored continuously for 60 minutes and the maximal relative luminescence unit (RLU) value for each sample was used for the graph. […]

r-p65mox mRNA = test: Expression of r-p65mox mRNA in rat aortic smooth muscle cells (Northern blot); format: cell-based
Method: Human multiple tissue northern (MTN) Blot I and Human MTN Blot IV (ClonTech) membranes were hybridized with the putative coding region of the PCR-mox vector at 68° C. for several hours. The mox coding region was labeled by random priming with [α-^32P]dCTP (10 μCi) using the Prime-It II kit (Stratagene). For analysis of mox1 expression in cell lines, total RNA was prepared from 10^6 cells using the High Pure RNA Isolation Kit (Boehringer Mannheim) or RNeasy kit (Quiagen). Total RNA (10-20 μg) was separated on a 1% agarose formaldehyde mini-gel and transferred to a Nytran filter (Biorad) and immobilized by ultraviolet cross-linking.
Using the partial cDNA clone from rat, we have examined cultured rat aortic smooth muscle cells for expression of message for r-p65mox. We have observed the mRNA for r-p65mox in these cells. It has been previously reported (Griendling et al. (1994) Circ. Res. 74, 1141-1148; Fukui et al. (1997) Circ. Res. 80, 45-51; Ushio-Fukai et al. (1996) J. Biol. Chem. 271, 23317-23321) that in vitro or in vivo treatment with angiotensin II (AII) is a growth stimulus for vascular smooth muscle cells, and that AII induces increased superoxide generation in these cells. Platelet-derived growth factor (PDGF) and PMA are proliferative signals for vascular smooth muscle cells. We observed that the mRNA for r-p65mox was induced approximately 2-3 fold by angiotensin II (100 nM), corresponding to the increased level of superoxide generation. Thus, the increased superoxide generation in these cells correlates with increased expression of the mRNA for this enzyme. […] 28S RNA was used as a control for RNA recovery.

[2] = tested on: NIH 3T3 cells transfected with the mox1 cDNA (SEQ ID NO:1); test: Nitro blue tetrazolium reduction by superoxide generated by intact NIH 3T3 cells transfected with mox1 cDNA; format: cell-based; conditions: 600 units superoxide dismutase
Method: Superoxide generation by intact cells was monitored by using superoxide dismutase-sensitive reduction of nitroblue tetrazolium. NEF2 (vector alone control), YA26 (mox1 (SEQ ID NO:1)-transfected) and YA28 (mox1 (SEQ ID NO:1)-transfected) cells were plated in six well plates at 500,000 cells per well. About 24 hours later, medium was removed from cells and the cells were washed once with 1 mL Hanks solution (Sigma, St. Louis, Mo.). About 1 mL of filtered 0.25% Nitro blue tetrazolium (NBT, Sigma) was added in Hanks without or with 600 units of superoxide dismutase (Sigma) and cells were incubated at 37° C. in the presence of 5% CO2. After 8 minutes the cells were scraped and pelleted at more than 10,000 g. The pellet was re-suspended in 1 mL of pyridine (Sigma) and heated for 10 minutes at 100° C. to solubilize the reduced NBT. The concentration of reduced NBT was determined by measuring the absorbance at 510 nm, using an extinction coefficient of 11,000 M^−1cm^−1. Some wells were untreated and used to determine cell number.

Molecule: c1ccc2c(c1)[I+]c1ccccc1-2 [DPI, diphenyleneiodonium]
effect of added agent on the luminescent signal (human mox1): inhibited
RLU/5 μg protein, plus DPI ([1]; V12-Ras-4 lysate): 36 RLU/5 μg protein
RLU/5 μg protein, plus DPI ([1]; V12-Ras-7 lysate): 39 RLU/5 μg protein
RLU/5 μg protein, plus DPI ([1]; V12-Ras-8 lysate): 35 RLU/5 μg protein
RLU/5 μg protein, plus DPI ([1]; Vector Control lysate): 48 RLU/5 μg protein
inhibition of luminescence / activity [1]: completely inhibited

enhancement of NADPH-oxidase activity (mox1 NADPH-oxidase): about 2 fold
Molecule: [Cl-].[Cl-].[Mg+2] [MgCl2]

Molecule: PDGF
induction of rat mox1 message, quantitation by densitometry (r-p65mox mRNA; 6 and 12 hour time points): ~4 fold
increase of mRNA for r-p65mox (r-p65mox mRNA; PDGF 20 ng/ml): ≥ 2 fold
Northern hybridization of mox1 mRNA from rat aortic smooth muscle cells (r-p65mox mRNA; within 12 hours after treatment): increased roughly two-fold

Molecule: angiotensin II (DRVYIHPF; Angiotensin-2; UniProt P01019 25-32, looked up) [growth stimulus for vascular smooth muscle cells]
induction of rat mox1 message, quantitation by densitometry (r-p65mox mRNA; 12 hour time point): approximately 2 fold

effect of added agent on the luminescent signal (human mox1): inhibited
RLU/5 μg protein, plus SOD ([1]; V12-Ras-4 lysate): 2128 RLU/5 μg protein
RLU/5 μg protein, plus SOD ([1]; V12-Ras-7 lysate): 578 RLU/5 μg protein
RLU/5 μg protein, plus SOD ([1]; V12-Ras-8 lysate): 2000 RLU/5 μg protein
RLU/5 μg protein, plus SOD ([1]; Vector Control lysate): 154 RLU/5 μg protein
inhibition of luminescence / activity [1]: partially inhibited
Molecule: superoxide dismutase
NBT Reduction, +SOD ([2]; YA26 (mox1) cells): 3.4 ± 0.1 nmols/10^6 cells
NBT Reduction, +SOD ([2]; YA28 (mox1) cells): 3.4 ± 0.3 nmols/10^6 cells
NBT Reduction, +SOD ([2]; vector control cells): 2.1 ± 0.5 nmols/10^6 cells

effect of added agent on the luminescent signal (human mox1): unaffected
B1: p67phox: recombinant human p67phox, essential cytosolic factor for the phagocyte respiratory-burst oxidase (protein, UniProt P19878 1-526, looked up)
Neutrophil cytosol factor 2: MSLVEAISLWNEGVLAADKKDWKGALDAFSAVQDPHSRICFNIGCMYTILKNMTEAEKAFTRSINRDKHLAVAYFQRGMLYYQTEKYDLAIKDLKEALIQLRGNQLIDYKILGLQFKLFACEVLYNIAFMYAKKEEWKKAEEQLALATSMKSEPRHSKIDKAMECVWKQKLYEPVVIPVGKLFRPNERQVAQLAKKDYLGKATVVASVVDQDSFSGFAPLQPQAAEPPPRPKTPEIFRALEGEAHRVLFGFVPETKEELQVMPGNIVFVLKKGNDNWATVMFNGQKGLVPCNYLEPVELRIHPQQQPQEESSPQSDIPAPPSSKAPGRPQLSPGQKQKEEPKEVKLSVPMPYTLKVHYKYTVVMKTQPGLPYSQVRDMVSKKLELRLEHTKLSYRPRDSNELVPLSEDSMKDAWGQVKNYCLTLWCENTVGDQGFPDEPKESEKADANNQTTEPQLKKGSQVEALFSYEATQPEDLEFQEGDIILVLSKVNEEWLEGECKGKVGIFPKVFVEDCATTDLESTRREV

effect of added agent on the luminescent signal (human mox1): unaffected
B2: p47phox: recombinant human p47phox, essential cytosolic factor for the phagocyte respiratory-burst oxidase (protein, UniProt P14598 1-390, looked up)
Neutrophil cytosol factor 1: MGDTFIRHIALLGFEKRFVPSQHYVYMFLVKWQDLSEKVVYRRFTEIYEFHKTLKEMFPIEAGAINPENRIIPHLPAPKWFDGQRAAENRQGTLTEYCSTLMSLPTKISRCPHLLDFFKVRPDDLKLPTDNQTKKPETYLMPKDGKSTATDITGPIILQTYRAIANYEKTSGSEMALSTGDVVEVVEKSESGWWFCQMKAKRGWIPASFLEPLDSPDETEDPEPNYAGEPYVAIKAYTAVEGDEVSLLEGEAVEVIHKLLDGWWVIRKDDVTGYFPSMYLQKSGQDVSQAQRQIKRGAPPRRSSIRNAHSIHQRSRKRLSQDAYRRNSVRFLQQRRRQARPGPQSPGSPLEEERQTQRSKPQPAVPPRPSADLILNRCSESTKRKLASAV
